From patent publication US20240196897A1, “METHOD FOR CONTROLLING DISEASE-TRANSMITTING INSECTS USING CONDENSED HETEROCYCLIC COMPOUND” (SUMITOMO CHEMICAL COMPANY, LIMITED, priority 2021, published 2024)

Legend:
[1] = test system: German cockroaches (Blattella germanica); test: Aerosol spray test on adult German cockroaches, moribund and mortal rates; assay type: in vivo; settings: aerosol per Formulation Example 2 (0.1 part compound); spray time 1.35 seconds, spray amount about 800 mg, from height 50 cm; ten adults; one day after spraying
Protocol: (§1) The internal pressure of the container at 20° C. of the aerosols thus fabricated was 0.5 MPa, the spray amount was 3 g/5 seconds, and the representative particle size (XR value) was 14 to 15 μm.
In a plastic container (diameter: 12.4 cm, height: 10.2 cm), ten adult German cockroaches (Blattella germanica) (five males and five females each) were released, and the plastic container was placed in the center of the bottom of a cylindrical chamber of 17.2 cm in diameter. From the height of 50 cm, the aerosol containing each compound listed in Table 2 which was fabricated according to the method mentioned in Formulation Example 2 was sprayed with a spray time of 1.35 seconds and a spray amount of about 800 mg. After a lapse of one day from spraying, the number of dead and moribund individuals was examined, and moribund and mortal rates (%) were determined by the equation 1 below. Dead individuals are completely immobile individuals, and moribund individuals are individuals who cannot get up when turned on their backs.
Moribund and mortal rates (%)={(number of dead individuals+number of moribund individuals)/number of tested individuals}×100 (Equation 1)

[2] = test system: Argentine worker ants (Linepithema humile); test: Aerosol spray test on adult Argentine worker ants, moribund and mortal rates; assay type: in vivo; settings: aerosol per Formulation Example 2 (0.1 part compound), from height 60 cm, ten adult workers, seven days after spraying
Protocol: as §1
In a plastic container (diameter: 10 cm, height: 4.5 cm) lined with a filter paper (diameter: 8.2 cm), ten adult Argentine worker ants (Linepithema humile) were released, and the plastic container was placed in the center of the bottom of a cylindrical chamber of 17.2 cm in diameter. From the height of 60 cm, the aerosol containing each compound listed in Table 2 which was fabricated according to the method mentioned in Formulation Example 2 was sprayed with a spray time of 0.34 second or 0.68 second and a spray amount of about 400 mg or 200 mg. After a lapse of seven days from spraying, the number of dead and moribund individuals was examined, and moribund and mortal rates (%) were determined by the equation 2 below. Dead individuals are completely immobile individuals, and moribund individuals are individuals who cannot get up when turned on their backs.
Moribund and mortal rates (%)={(number of dead individuals+number of moribund individuals)/number of tested individuals}×100 (Equation 2)

Row | SMILES | Moribund and mortal rates (%) after one day [1] [%] | Moribund and mortal rates (%) after seven days ([2]; spray amount 200 mg) [%] | Moribund and mortal rates (%) after seven days ([2]; spray amount 400 mg) [%]
1 | CCS(=O)(=O)c1cc(C(F)(F)F)cnc1-c1nc2cc([S+]([O-])C(F)(F)F)ccc2o1 (stereo not drawn) [Comparative compound 1] | 30 | 10 | 100
2 | CCS(=O)(=O)c1cc(C(F)(F)F)cnc1-c1nc2cc(S(=O)(=O)C(F)(F)F)ccc2o1 [Comparative compound 2] | 30 | 13 | 100
3 | CCS(=O)(=O)c1cc(C)cnc1-c1nc2cc([S+]([O-])C(F)(F)F)ccc2o1 (stereo not drawn) [Comparative compound 3] | 30 | 3 | 100
4 | CCS(=O)(=O)c1cc(C)cnc1-c1nc2cc(S(=O)(=O)C(F)(F)F)ccc2o1 [Comparative compound 4] | 15 | 10 | 100
5 | CCS(=O)(=O)c1cc(C2CC2)cnc1-c1nc2cc([S+]([O-])C(F)(F)F)ccc2o1 (stereo not drawn) [Present compound A] | 100 | 100 | 100
6 | CCS(=O)(=O)c1cc(C2CC2)cnc1-c1nc2cc(S(=O)(=O)C(F)(F)F)ccc2o1 [Present compound B] | 100 | 100 | 100
